The values below come from patent publication US12472178B2, “Amorphous solid dispersions” (INTRA-CELLULAR THERAPIES, INC., priority 2016, dated 2025).

The conditions of data set [1]: amorphous form compared with the crystalline form; cited from earlier work.
A short description of data set [2]: Stability of solutions in 2,2,2-trifluoroethanol. The format is physicochemical. As to conditions: solutions in TFE.
The conditions of data set [3]: free base form; cited from earlier work.
The next data set addresses H1 histaminergic (Homo sapiens, UniProt P35367). Conditions: cited from earlier work.
The target in another data set is T1, 5-HT2C (Homo sapiens, UniProt P28335).
T1 sequence (P28335 33-458): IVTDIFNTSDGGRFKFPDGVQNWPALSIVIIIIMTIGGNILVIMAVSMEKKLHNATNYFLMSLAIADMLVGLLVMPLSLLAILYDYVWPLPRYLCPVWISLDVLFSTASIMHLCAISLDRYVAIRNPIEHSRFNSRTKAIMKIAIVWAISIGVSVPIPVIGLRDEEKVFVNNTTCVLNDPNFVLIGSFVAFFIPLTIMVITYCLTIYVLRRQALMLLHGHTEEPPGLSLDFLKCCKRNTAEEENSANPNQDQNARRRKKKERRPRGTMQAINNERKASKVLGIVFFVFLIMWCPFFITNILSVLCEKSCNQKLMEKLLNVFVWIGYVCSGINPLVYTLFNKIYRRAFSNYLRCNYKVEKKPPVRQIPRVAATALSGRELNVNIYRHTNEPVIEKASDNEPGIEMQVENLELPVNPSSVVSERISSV
As to conditions: cited from earlier work.

The nature of data set [4]: Preliminary screen of lyophilized dispersions by XRPD and appearance. Type of data set: physicochemical. As to conditions: ITI-007 free base dispersions, as generated. On the procedure: X-ray powder diffraction (XRPD): The X-ray powder diffraction studies are performed using a PANalytical X′Pert PRO MPD diffractometer using an incident beam of Cu radiation produced using an Optix long, fine-focus source. An elliptically graded multilayer mirror is used to focus Cu Kα X-ray radiation through the specimen and onto the detector. Prior to analysis, a silicon specimen is analyzed to verify the observed position of the Si (111) peak (consistent with the NIST-certified position, NIST SM 640e). A specimen of the sample is sandwiched between 3-micron thick films and analyzed in transmission geometry. A beam-stop, short antiscatter extension, and antiscatter knife edge is used to minimize the background generated by the air. Soller slits for the incident and diffracted beams are used to minimize broadening from axial divergence. Diffraction patterns are collected using a scanning position-sensitive detector (X′Celerator) located 240 mm from the specimen. Data Collector software v. 2.2b is used for analysis.
Solutions are initially frozen in a dry ice/acetone bath, and then placed in a freeze dryer with the shelf pre-cooled to −75° C. […]
Solid dispersions obtained from Example 1 are first evaluated by XRPD to determine if they are amorphous. […]
The same excipients are evaluated as described in Example 1.

For a further data set, the system named is muscarinic receptors. Conditions: cited from earlier work.
Data set [5] is described as follows: Glass transition temperature by mDSC. Conditions: ITI-007 free base dispersions; Yes/No. The format is physicochemical.

Chain of H1 histaminergic (P35367 whole entry): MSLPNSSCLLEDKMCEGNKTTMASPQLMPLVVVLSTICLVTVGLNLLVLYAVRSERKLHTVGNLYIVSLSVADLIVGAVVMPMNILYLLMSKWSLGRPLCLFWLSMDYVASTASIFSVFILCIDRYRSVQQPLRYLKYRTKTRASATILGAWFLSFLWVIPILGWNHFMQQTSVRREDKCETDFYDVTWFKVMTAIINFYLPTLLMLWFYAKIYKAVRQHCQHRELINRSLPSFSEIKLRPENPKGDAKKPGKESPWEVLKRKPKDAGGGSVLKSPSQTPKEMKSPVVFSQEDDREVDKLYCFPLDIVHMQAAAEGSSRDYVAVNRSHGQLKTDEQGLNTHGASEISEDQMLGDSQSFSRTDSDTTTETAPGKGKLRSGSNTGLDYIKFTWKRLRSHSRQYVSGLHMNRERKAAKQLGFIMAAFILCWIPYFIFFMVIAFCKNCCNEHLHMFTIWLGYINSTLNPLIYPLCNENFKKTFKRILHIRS

On to `CO/N=C(\C(=O)N[C@@H]1C(=O)N2C(C(=O)OC(C)OC(C)=O)=C(COC(N)=O)CS[C@H]12)c1ccco1` (some centres unmarked) [Cefuroxime axetil], for which, in data set [1], the bioavailability entry is listed as “higher bioavailability”.

Regarding `CN1CCN2c3c(cccc31)[C@@H]1CN(CCCC(=O)c3ccc(F)cc3)CC[C@@H]12` [ITI-007, 1-(4-fluoro-phenyl)-4-((6bR,10aS)-3-methyl-2,3,6b,9,10,10a-hexahydro-1H,7H-pyrido[3′,4′:4,5]pyrrolo[1,2,3-de]quinoxalin-8-yl)-butan-1-one], the stability of solution result in data set [2] is “rapidly discolor due to decomposition of the active”. In addition, the solubility in water result in data set [3] is “poor solubility”. Further, the binding entry at H1 histaminergic, at 5-HT2C and in the data set with muscarinic receptors was “negligible binding” throughout. The “X-ray Amorphous Solids?” value in data set [4] is reported as “No”. Further, the “Tg > 75° C.” value in data set [5] is “No”.
